Counter-ions that a name gives are not always drawn.
What was measured:
Details in all cases: exposure time: 72 h
E13 [1] = patient-derived glioblastoma stem cells of classical subtype; experiment: surviving fraction (nuclei count normalised to DMSO); higher = more cells surviving (less toxic)
E21 [2] = patient-derived glioblastoma stem cells of mesenchymal subtype; experiment: as above
E28 [3] = patient-derived glioblastoma stem cells of classical subtype; experiment: as above
E31 [4] = patient-derived glioblastoma stem cells of proneural subtype; experiment: as above
E34 [5] = patient-derived glioblastoma stem cells of proneural subtype; experiment: as above
E57 [6] = patient-derived glioblastoma stem cells of mesenchymal subtype; experiment: as above
FT3469 [7] = normal neural stem cell line; experiment: as above
E13 [8] = experiment: phenotypic distance (Euclidean, principal components) from DMSO controls (arbitrary units); higher = stronger morphological change
E21 [9] = experiment: as above
E28 [10] = experiment: as above
E31 [11] = experiment: as above
E34 [12] = experiment: as above
E57 [13] = experiment: as above
FT3469 [14] = experiment: as above
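Wherever phenotypic distance (Euclidean, principal components) from DMSO controls is given: cell Painting imaging in 384-well plates, CellProfiler features reduced to at least 20 principal components, Euclidean distance versus same-plate DMSO vehicle wells (0.1% v/v), median over six images per well.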
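Wherever surviving fraction (nuclei count normalised to DMSO) is given: nuclei counted by high-content imaging of Hoechst-stained cells in laminin-coated 384-well plates, relative to 0.1% DMSO vehicle wells, with staurosporine as cell-death control.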

CN(C)CCN(Cc1ccc(Cl)cc1)c1ccccn1 [Chloropyramine hydrochloride]
Details | phenotypic distance | surviving fraction
E13 [1], 4.1 nM | – | 0.918
E13 [1], 12.3 nM | – | 0.933
E13 [1], 37 nM | – | 0.988
E13 [1], 111.1 nM | – | 0.881
E13 [1], 333.3 nM | – | 0.847
E13 [1], 1000 nM | – | 0.953
E13 [1], 3000 nM | – | 0.933
E13 [8], 4.1 nM | 0.601 | –
E13 [8], 12.3 nM | 0.447 | –
E13 [8], 37 nM | 0.683 | –
E13 [8], 111.1 nM | 0.455 | –
E13 [8], 333.3 nM | 0.745 | –
E13 [8], 1000 nM | 1.13 | –
E13 [8], 3000 nM | 0.879 | –
E21 [2], 4.1 nM | – | 0.942
E21 [2], 12.3 nM | – | 1.03
E21 [2], 37 nM | – | 0.87
E21 [2], 111.1 nM | – | 0.922
E21 [2], 333.3 nM | – | 0.993
E21 [2], 1000 nM | – | 1.12
E21 [2], 3000 nM | – | 1.08
E21 [9], 4.1 nM | 0.655 | –
E21 [9], 12.3 nM | 0.862 | –
E21 [9], 37 nM | 0.953 | –
E21 [9], 111.1 nM | 0.778 | –
E21 [9], 333.3 nM | 0.678 | –
E21 [9], 1000 nM | 1.38 | –
E21 [9], 3000 nM | 1.62 | –
E28 [3], 4.1 nM | – | 1.1
E28 [3], 12.3 nM | – | 0.995
E28 [3], 37 nM | – | 1.11
E28 [3], 111.1 nM | – | 0.91
E28 [3], 333.3 nM | – | 1.03
E28 [3], 1000 nM | – | 1.19
E28 [3], 3000 nM | – | 1.13
E28 [10], 4.1 nM | 1.02 | –
E28 [10], 12.3 nM | 1.04 | –
E28 [10], 37 nM | 0.979 | –
E28 [10], 111.1 nM | 0.796 | –
E28 [10], 333.3 nM | 1.02 | –
E28 [10], 1000 nM | 0.889 | –
E28 [10], 3000 nM | 0.936 | –
E31 [4], 4.1 nM | – | 0.968
E31 [4], 12.3 nM | – | 0.91
E31 [4], 37 nM | – | 0.853
E31 [4], 111.1 nM | – | 0.919
E31 [4], 333.3 nM | – | 0.897
E31 [4], 1000 nM | – | 0.946
E31 [4], 3000 nM | – | 0.856
E31 [11], 4.1 nM | 1.06 | –
E31 [11], 12.3 nM | 0.615 | –
E31 [11], 37 nM | 0.841 | –
E31 [11], 111.1 nM | 0.689 | –
E31 [11], 333.3 nM | 0.862 | –
E31 [11], 1000 nM | 0.815 | –
E31 [11], 3000 nM | 0.985 | –
E34 [5], 4.1 nM | – | 0.981
E34 [5], 12.3 nM | – | 0.964
E34 [5], 37 nM | – | 1.06
E34 [5], 111.1 nM | – | 0.866
E34 [5], 333.3 nM | – | 0.942
E34 [5], 1000 nM | – | 1.14
E34 [5], 3000 nM | – | 1
E34 [12], 4.1 nM | 1.29 | –
E34 [12], 12.3 nM | 1.02 | –
E34 [12], 37 nM | 1.15 | –
E34 [12], 111.1 nM | 2.53 | –
E34 [12], 333.3 nM | 0.82 | –
E34 [12], 1000 nM | 0.757 | –
E34 [12], 3000 nM | 1.2 | –
E57 [6], 4.1 nM | – | 0.916
E57 [6], 12.3 nM | – | 0.978
E57 [6], 37 nM | – | 0.96
E57 [6], 111.1 nM | – | 0.936
E57 [6], 333.3 nM | – | 0.986
E57 [6], 1000 nM | – | 1.02
E57 [6], 3000 nM | – | 1.03
E57 [13], 4.1 nM | 0.61 | –
E57 [13], 12.3 nM | 0.445 | –
E57 [13], 37 nM | 0.59 | –
E57 [13], 111.1 nM | 0.607 | –
E57 [13], 333.3 nM | 0.699 | –
E57 [13], 1000 nM | 0.663 | –
E57 [13], 3000 nM | 0.75 | –
FT3469 [7], 4.1 nM | – | 0.774
FT3469 [7], 12.3 nM | – | 1.01
FT3469 [7], 37 nM | – | 0.947
FT3469 [7], 111.1 nM | – | 0.867
FT3469 [7], 333.3 nM | – | 0.758
FT3469 [7], 1000 nM | – | 0.878
FT3469 [7], 3000 nM | – | 0.928
FT3469 [14], 4.1 nM | 1.06 | –
FT3469 [14], 12.3 nM | 0.715 | –
FT3469 [14], 37 nM | 0.697 | –
FT3469 [14], 111.1 nM | 0.656 | –
FT3469 [14], 333.3 nM | 0.847 | –
FT3469 [14], 1000 nM | 0.895 | –
FT3469 [14], 3000 nM | 0.975 | –
